# Experimental data as given in patent US10478407B2, “Pharmaceutical composition for viral infections” (The Administrators of the Tulane Educational Fund, priority 2018, dated 2019).
# Assays:
# Ebola virus (Zaire 76) = settings: 5 μg/ml; FIG. 17
# [1] = tested on: Herpes simplex virus type 1, ATCC VR-733, Strain F(1); assay: Virucidal suspension test of solutions A-18 to D-18 against HSV-1, Vero indicator cells (Example 18); assay type: cell-based; settings: for viral inhibitory effect: comparable concentrations
# Protocol: (§1) A suspension of virus was exposed to the use dilutions of the products. At the end of the exposure time, an aliquot was removed, neutralized by serial dilution, and assayed for the presence of virus. The virus controls, cytotoxicity controls, and neutralization controls were assayed in parallel. Antiviral properties of the solutions were evaluated and compared at the specified concentrations and time intervals.
# Dilutions: 1:5 defined as 1 ml test substance+4 parts sterile PBS=0.2 mg/ml
# • 1:10 defined as 1 ml test substance+9 parts sterile PBS=0.1 mg/ml • 1:15 defined as 1 ml test substance+14 parts sterile PBS=0.07 mg/ml • 1:20 defined as 1 ml test substance+19 parts sterile PBS=0.05 mg/ml • 1:25 defined as 1 ml test substance+24 parts sterile PBS=0.04 mg/ml Virus: Herpes simplex virus type 1, ATCC VR-733, Strain F(1) Exposure Time: 30 minutes Exposure Temperature: Room temperature (22.0° C.) Organic Soil Load: 1% fetal bovine serum Test Medium: Minimum Essential Medium (MEM) supplemented with 5% (v/v) heat-inactivated fetal bovine serum (FBS), […], 100 units/ml penicillin, and 2.5 μg/ml amphotericin B. Indicator Cell Cultures: Vero Results
# A similar experiment was run with 15 minutes contact time. The graphical representation can be seen in FIG. 6.
# [2] = tested on: Herpes simplex virus type 1, ATCC VR-733, Strain F(1); assay: Virucidal suspension test of solutions A-17 and B-17 against HSV-1, Vero indicator cells (Example 17); assay type: cell-based
# Protocol: as §1, with “each pre-determined” for “end of the”, “time” for “time,”
# Dilutions: FS (undiluted) defined as 1 ml test substance+0 ml PBS
# • 1:10 defined as 1 ml test substance+9 ml PBS • 1:100 defined as 1 ml of the 1:10 dilution+9 ml PBS Virus: Herpes simplex virus type 1, ATCC VR-733, Strain F(1) Exposure Time: 15 minutes and 60 minutes Exposure Temperature: Room temperature (22.0° C.) Organic Soil Load: 1% fetal bovine serum Test Medium: Minimum Essential Medium (MEM) supplemented with 5% (v/v) heat-inactivated fetal bovine serum (FBS), 10 μg/ml gentamicin, 100 units/ml penicillin, and 2.5 μg/ml amphotericin B. Indicator Cell Cultures: Vero Results
# [3] = 15 minutes contact time, FIG. 6
# [4] = dilution 1:5 = 0.2 mg/ml, 30 minutes exposure, 22.0° C.
# [5] = dilution 1:10 = 0.1 mg/ml, 30 minutes exposure
# [6] = dilution 1:15 = 0.07 mg/ml, 30 minutes exposure
# [7] = dilution 1:20 = 0.05 mg/ml, 30 minutes exposure
# [8] = dilution 1:25 = 0.04 mg/ml, 30 minutes exposure
# [9] = FS (undiluted), 15 minutes exposure, 22.0° C., stock A-17 1 mg/mL, B-17 10 mg/mL
# [10] = FS (undiluted), 60 minutes exposure
# [11] = dilution 1:10, 15 minutes exposure
# [12] = dilution 1:10, 60 minutes exposure
# [13] = dilution 1:100, 15 minutes exposure
# [14] = dilution 1:100, 60 minutes exposure
Substance,"viral inhibitory effect [1, 3]","% Reduction [1, 4] [%]","Log10 Reduction [1, 4] [log10]","% Reduction [1, 5]","Log10 Reduction [1, 5]","% Reduction [1, 6]","Log10 Reduction [1, 6]","% Reduction [1, 7]","Log10 Reduction [1, 7]","% Reduction [1, 8]","Log10 Reduction [1, 8]",also measured
C12-alkyl(ethylbenzyl) dimethylammonium chloride,–,–,–,–,–,–,–,–,–,–,–,deactivation of Ebola virus (Ebola virus (Zaire 76)): Complete deactivation
C12-alkyl(ethylbenzyl) dimethylammonium chloride [Formulation A-18],complete inactivation,≥99.997,≥4.5,99.4%,2.25 log10,98.2%,1.75 log10,96.8%,1.5 log10,90.0%,1 log10,"% Reduction [1, 3]: 99.997%; log10 reduction [1, 3]: 6.75 log10"
C14-alkyl(ethylbenzyl) dimethylammonium chloride [Formulation B-18],–,94.4,1.24,43.8%,0.25 log10,No Reduction,No Reduction,No Reduction,No Reduction,No Reduction,No Reduction,–
benzalkonium chloride [Formulation B-17],–,–,–,–,–,–,–,–,–,–,–,"% reduction in viral titer [2, 9]: ≥ 99.99%; log10 reduction in viral titer [2, 9]: ≥ 4.00 log10; % reduction in viral titer [2, 10]: ≥ 99.98%; log10 reduction in viral titer [2, 10]: ≥ 3.75 log10; % reduction in viral titer [2, 11]: ≥ 99.999%; log10 reduction in viral titer [2, 11]: ≥ 5.00 log10; % reduction in viral titer [2, 12]: ≥ 99.998%; log10 reduction in viral titer [2, 12]: ≥ 4.75 log10; % reduction in viral titer [2, 13]: 90.0%; log10 reduction in viral titer [2, 13]: 1 log10; % reduction in viral titer [2, 14]: 99.7%; log10 reduction in viral titer [2, 14]: 2.5 log10"
"benzalkonium chloride [Formulation C-18, reference compound]",no viral inhibitory effect,43.8,0.25,No Reduction,No Reduction,No Reduction,No Reduction,No Reduction,No Reduction,No Reduction,No Reduction,–
